Laboratory results taken from patent publication US20240197719A1 (priority 2018, published 2024).

Legend:
[1] = in vivo, iv; cited from earlier work
[2] = in vivo; cited from earlier work
[3] = in vivo

## C=C1CC[C@@]2(O)[C@H]3Cc4ccc(O)c5c4[C@@]2(CCN3CC2CC2)[C@H]1O5 [Nalmefene, 17-cyclopropylmethyl-4,5α-epoxy-6-methylenemorphinan-3,14-diol]
[1]
  reported half-life: 8 to 10.8 h
[2]
  incidence of adverse events: less than 1%
  incidence of common adverse reactions: greater than 1%

## O=C1CC[C@@]2(O)[C@H]3Cc4ccc(O)c5c4[C@@]2(CCN3CC2CC2)[C@H]1O5 [naltrexone]
[3]
  AUC: increased significantly
